Assay [1] concerns Streptococcus pyogenes. Nature of the assay: mouse protection, experimentally-induced infection. Type of assay: in vivo. Particulars: mice infected with Streptococcus pyogenes, two doses.
For assay [2], the system named is Staphylococcus haemolyticus 415. Nature of the assay: broth micro-dilution MIC. Type of assay: cell-based. The protocol:
(§1) The formula I compounds have in vitro and in vivo activity against Gram-positive pathogenic bacteria. The MIC's were determined using a standard broth micro-dilution assay.
For orientation: Dilution methods test growth across graded concentrations, often in twofold steps.

In assay [3] the test system is Enterococcus gallinarum 245. Description: broth micro-dilution MIC. The class given is cell-based. The note with it: Enterococcus gallinarum 245. The protocol: as §1
The subject of assay [4] is Streptococcus pneumoniae P1. Nature of the assay: broth micro-dilution MIC. The class given is cell-based. The protocol: as §1
For assay [5], the system named is Staphylococcus haemolyticus 105. Description: broth micro-dilution MIC. Type of assay: cell-based. The protocol:
as §1

In assay [6] the test system is Entercoccus faecium 2041. Nature of the assay: broth micro-dilution MIC. The class given is cell-based. The note with it: Entercoccus faecium 2041. The protocol: as §1
Assay [7] deals with Entercoccus faecium 180. Nature of the assay: broth micro-dilution MIC. Type of assay: cell-based. Particulars: Entercoccus faecium 180. The protocol:
as §1

Assay [8] has as its system Staphylococcus aureus SA1199B. Type of assay: cell-based. The protocol: (§2) The MIC's were determined using a standard broth micro-dilution assay.
The subject of assay [9] is Entercoccus faecium 276. Description: broth micro-dilution MIC. The class given is cell-based. The protocol: as §2
The subject of assay [10] is Staphylococcus aureus 491. Description: broth micro-dilution MIC. Type of assay: cell-based. The protocol: as §2
Assay [11] deals with Staphylococcus aureus 447. Description: broth micro-dilution MIC. The class given is cell-based. The protocol: as §2
Assay [12] has as its system Staphylococcus aureus 489. Nature of the assay: broth micro-dilution MIC. Type of assay: cell-based. The protocol:
as §2

The test system of assay [13] is Staphylococcus aureus X778. Description: broth micro-dilution MIC. The class given is cell-based. The protocol:
as §2

Assay [14] concerns Staphylococcus aureus 446. Description: broth micro-dilution MIC. Type of assay: cell-based. The protocol: as §2
Assay [15] deals with Stapylococcus aureus. Nature of the assay: mouse protection, experimentally-induced infection. The class given is in vivo. Particulars: mice infected with Stapylococcus aureus, two doses.
The subject of assay [16] is vancomycin-resistant enterococci. Description: broth micro-dilution, mean geometric MIC. The note with it: enterococci, 24-hour incubation. The class given is cell-based, Enterococcus faecium and Enterococcus faecalis.
In assay [17] the test system is vancomycin-susceptible enterococci. Nature of the assay: broth micro-dilution, mean geometric MIC. The class given is cell-based, Enterococcus faecium and Enterococcus faecalis. Particulars: enterococci, 24-hour incubation.
Assay [18] concerns Staphylococcus epidermidis 270. Nature of the assay: broth micro-dilution MIC. Type of assay: cell-based. The protocol:
as §1

For assay [19], the system named is Staphylococcus aureus S13E. The class given is cell-based. The protocol:
as §2

Assay [20] deals with Staphylococcus aureus SA1199. Description: broth micro-dilution MIC. Type of assay: cell-based. The protocol: as §2
For assay [21], the system named is Streptococcus pyogenes C203. Nature of the assay: broth micro-dilution MIC. The class given is cell-based. The protocol:
as §2

Assay [22] concerns Entercoccus faecium 180-1. Nature of the assay: broth micro-dilution MIC. The class given is cell-based. The protocol:
as §2

For assay [23], the system named is Streptococcus pneumoniae. Description: mouse protection, experimentally-induced infection. Type of assay: in vivo. Particulars: mice infected with Streptococcus pneumoniae, two doses.
The test system of assay [24] is Staphylococcus aureus SA1199A. Nature of the assay: broth micro-dilution MIC. The class given is cell-based. The protocol: as §2
Assay [25] deals with Staphylococcus aureus X400. Description: broth micro-dilution MIC. Type of assay: cell-based. The protocol:
as §2

Assay [26] concerns Haemophilus influenzae RD. Description: broth micro-dilution MIC. Type of assay: cell-based. Particulars: Haemophilus influenzae RD. The protocol:
as §1

Converted amounts (≈) assume the structure as drawn.

As for `CN[C@@H](CC(C)C)C(=O)N[C@H]1C(=O)N[C@H](CC(N)=O)C(=O)N[C@H]2C(=O)N[C@H]3C(=O)N[C@@H](C(=O)NC(C(=O)O)c4cc(O)cc(O)c4-c4cc3ccc4O)[C@@H](O[C@H]3C[C@](C)(N)[C@H](O)[C@@H](C)O3)c3ccc(cc3)Oc3cc2cc(c3O[C@H]2O[C@@H](CO)[C@@H](O)[C@H](O)[C@@H]2O[C@H]2C[C@](C)(N)[C@H](O)[C@@H](C)O2)Oc2ccc(cc2)[C@@H]1O` (some centres unmarked) [Compound A82846C, A82846C, reference compound], the ED50 stood at 1.5 mg/kg/2 in assay [1] and 1.3 mg/kg/2 in assay [15]. Also, the MIC in assay [2] is 2 µg/mL (≈ 1.31 µM); in assay [3] it was 0.5 µg/mL (≈ 0.328 µM); in assay [4], “≤ .06 µg/mL”; in assay [5], 1 µg/mL (≈ 0.656 µM); in assay [6] it was 0.5 µg/mL (≈ 0.328 µM); in [7] it was 16 µg/mL (≈ 10.5 µM). In addition, the MIC result in assay [8] is “≤ .06 µg/mL”; in assay [9], 0.5 µg/mL (≈ 0.328 µM); in assay [10], 1 µg/mL (≈ 0.656 µM); in [11], 0.5 µg/mL (≈ 0.328 µM); in assay [12], “≤ .06 µg/mL”; in assay [13], 0.5 µg/mL (≈ 0.328 µM). This compound had an MIC in assay [14] of 0.5 µg/mL (≈ 0.328 µM). In addition, the “mean geometric MIC, Vancomycin Resistant Strains” value in [16] was found to be 353 µg/mL.

As to `CNC(CC(C)C)C(=O)NC1C(=O)NC(CC(N)=O)C(=O)NC2C(=O)NC3C(=O)NC(C(=O)NC(C(=O)O)c4cc(O)cc(O)c4-c4cc3ccc4O)C(OC3CC(C)(N)C(O)C(C)O3)c3ccc(c(Cl)c3)Oc3cc2cc(c3OC2OC(CO)C(O)C(O)C2OC2CC(C)(NCc3ccc(OCc4ccccc4)c(OCc4ccccc4)c3)C(O)C(C)O2)Oc2ccc(cc2Cl)C1O` (centres unmarked) [Compound 53], in assay [17], the “mean geometric MIC, Vancomycin Sensitive Strains” value was 0.25 µg/mL. Moreover, the ED50 in assay [1] came out at 0.16 mg/kg/2; in [15], 0.077 mg/kg/2; in assay [23], 0.071 mg/kg/2. In addition, the MIC was 2 µg/mL (≈ 1.06 µM) in [2]; 2 µg/mL (≈ 1.06 µM) in [3]; 2 µg/mL (≈ 1.06 µM) in assay [18]; no more than 0.06 µg/mL in [4]; 2 µg/mL (≈ 1.06 µM) in [5]; 1 µg/mL (≈ 0.528 µM) in [6]. In addition, the MIC was 1 µg/mL (≈ 0.528 µM) in assay [7]; 2 µg/mL (≈ 1.06 µM) in assay [19]; 2 µg/mL (≈ 1.06 µM) in assay [8]; 8 µg/mL (≈ 4.22 µM) in assay [9]; 2 µg/mL (≈ 1.06 µM) in [20]; no more than 0.06 µg/mL in assay [21]. Further, the MIC came to 2 µg/mL (≈ 1.06 µM) in assay [10]; 4 µg/mL (≈ 2.11 µM) in [11]; 2 µg/mL (≈ 1.06 µM) in assay [13]; 2 µg/mL (≈ 1.06 µM) in assay [14]; 2 µg/mL (≈ 1.06 µM) in [22]. In addition, the “mean geometric MIC, Vancomycin Resistant Strains” value in assay [16] turned out to be 0.35 µg/mL.

Consider `CNC(CC(C)C)C(=O)NC1C(=O)NC(CC(N)=O)C(=O)NC2C(=O)NC3C(=O)NC(C(=O)NC(C(=O)O)c4cc(O)cc(O)c4-c4cc3ccc4O)C(OC3CC(C)(N)C(O)C(C)O3)c3ccc(c(Cl)c3)Oc3cc2cc(c3OC2OC(CO)C(O)C(O)C2OC2CC(C)(NCc3ccc(Oc4ccc([N+](=O)[O-])cc4)cc3)C(O)C(C)O2)Oc2ccc(cc2Cl)C1O` (centres unmarked) [Compound 57], for which the “mean geometric MIC, Vancomycin Sensitive Strains” value in assay [17] amounted to 0.041 µg/mL. For the same compound, the values for the ED50 in assay [1], in assay [15] and in [23] were 0.054 mg/kg/2, 0.041 mg/kg/2 and 0.046 mg/kg/2, respectively. Besides, the MIC in [2] is 1 µg/mL (≈ 0.55 µM); in [3] it was 2 µg/mL (≈ 1.1 µM); in assay [18] it was 0.5 µg/mL (≈ 0.275 µM); in assay [4], no more than 0.06 µg/mL; in assay [5] it was 8 µg/mL (≈ 4.4 µM); in assay [6] it was no more than 0.06 µg/mL. The MIC is 0.5 µg/mL (≈ 0.275 µM) in assay [7]; no more than 0.06 µg/mL in assay [19]; 0.5 µg/mL (≈ 0.275 µM) in assay [9]; no more than 0.06 µg/mL in assay [20]; no more than 0.06 µg/mL in assay [21]; 0.5 µg/mL (≈ 0.275 µM) in assay [11]. In addition, the MIC in assay [12] was 0.5 µg/mL (≈ 0.275 µM); in assay [13], no more than 0.06 µg/mL; in [22] it was no more than 0.06 µg/mL; in assay [24], no more than 0.06 µg/mL. In addition, the “mean geometric MIC, Vancomycin Resistant Strains” value in [16] was determined as 0.35 µg/mL.

As to `CCCCCc1ccc(-c2ccc(CNC3(C)CC(OC4C(Oc5c6cc7cc5Oc5ccc(cc5Cl)C(OC5CC(C)(N)C(O)C(C)O5)C5NC(=O)C(NC(=O)C7NC(=O)C(CC(N)=O)NC(=O)C(NC(=O)C(CC(C)C)NC)C(O)c7ccc(c(Cl)c7)O6)c6ccc(O)c(c6)-c6c(O)cc(O)cc6C(C(=O)O)NC5=O)OC(CO)C(O)C4O)OC(C)C3O)cc2)cc1` (centres unmarked) [Compound 22], the “mean geometric MIC, Vancomycin Sensitive Strains” value in assay [17] turned out to be 1.5 µg/mL. Further, the values for the ED50 in [1], in assay [15] and in assay [23] were greater than 0.5 mg/kg/2, 0.049 mg/kg/2 and “> .05 mg/kg/2”, respectively. The MIC in [3] was 1 µg/mL (≈ 0.547 µM); in [18] it was 4 µg/mL (≈ 2.19 µM); in assay [6], 2 µg/mL (≈ 1.09 µM); in assay [7], 1 µg/mL (≈ 0.547 µM); in assay [9], 4 µg/mL (≈ 2.19 µM); in assay [21] it was no more than 0.06 µg/mL. Further, the MIC in assay [10] is 8 µg/mL (≈ 4.37 µM); in assay [12] it was 8 µg/mL (≈ 4.37 µM); in assay [13], 8 µg/mL (≈ 4.37 µM); in [22], no more than 0.06 µg/mL; in assay [24], 4 µg/mL (≈ 2.19 µM); in [25], 8 µg/mL (≈ 4.37 µM). Besides, the “mean geometric MIC, Vancomycin Resistant Strains” value in assay [16] came out at 1.0 µg/mL.

Regarding `CNC(CC(C)C)C(=O)NC1C(=O)NC(CC(N)=O)C(=O)NC2C(=O)NC3C(=O)NC(C(=O)NC(C(=O)O)c4cc(O)cc(O)c4-c4cc3ccc4O)C(OC3CC(C)(N)C(O)C(C)O3)c3ccc(c(Cl)c3)Oc3cc2cc(c3OC2OC(CO)C(O)C(O)C2OC2CC(C)(NCc3ccc(-c4ccc(Cl)cc4)cc3)C(O)C(C)O2)Oc2ccc(cc2Cl)C1O` (centres unmarked) [Compound 229, 4-[4-chlorophenyl]benzyl-A82846B], in [17], the “mean geometric MIC, Vancomycin Sensitive Strains” value came out at 0.024 µg/mL. In addition, the values for the ED50 in [1] and in [23] were 0.058 mg/kg/2 and 0.078 mg/kg/2, respectively. The MIC in [2] was 2 µg/mL (≈ 1.12 µM); in assay [3], 2 µg/mL (≈ 1.12 µM); in [18], 0.5 µg/mL (≈ 0.279 µM); in assay [4], no more than 0.06 µg/mL; in [5] it was 1 µg/mL (≈ 0.558 µM); in assay [26] it was 2 µg/mL (≈ 1.12 µM). The MIC in assay [6] was no more than 0.06 µg/mL; in assay [7], no more than 0.06 µg/mL; in [19] it was 1 µg/mL (≈ 0.558 µM); in [8], 1 µg/mL (≈ 0.558 µM); in assay [9], 0.25 µg/mL (≈ 0.139 µM); in assay [20], 1 µg/mL (≈ 0.558 µM). Besides, the MIC was no more than 0.06 µg/mL in [21]; 0.5 µg/mL (≈ 0.279 µM) in assay [10]; 2 µg/mL (≈ 1.12 µM) in assay [11]; 1 µg/mL (≈ 0.558 µM) in [12]; 1 µg/mL (≈ 0.558 µM) in [13]; 1 µg/mL (≈ 0.558 µM) in assay [14]. Besides, the MIC in [22] is no more than 0.06 µg/mL; in [24], no more than 0.06 µg/mL; in [25], 1 µg/mL (≈ 0.558 µM). Besides, the “mean geometric MIC, Vancomycin Resistant Strains” value in assay [16] came out at 0.50 µg/mL.
